pEC50: −log10 of the molar value. In brackets after ≈: the same amount, converted by molar mass.
Experiments:
Candida albicans = test: Antifungal activity against Candida albicans DSM 1386 after 24 to 48 hr by broth microdilution method; format: functional
Pseudomonas aeruginosa = test: Antibacterial activity against Pseudomonas aeruginosa DSM 1117 after 16 to 20 hr by broth microdilution method; format: functional
Poliovirus 1 = test: Antiviral activity against Human poliovirus 1 strain Sabin infected African green monkey Vero76 cells assessed as reduction of virus-induced plaque reduction after 2 days by MTT assay; format: functional, organism-based; conditions: Enterovirus C, Vero 76, 48 h
Staphylococcus aureus = test: Antibacterial activity against Staphylococcus aureus DSM 2569 after 16 to 20 hr by broth microdilution method; format: functional
Vaccinia virus = test: Antiviral activity against Vaccinia virus infected African green monkey Vero76 cells assessed as reduction of virus-induced plaque reduction after 3 days by MTT assay; format: functional, organism-based; conditions: Orthopoxvirus vaccinia, Vero 76, 72 h
[1] = Selectivity index, ratio of CC50 for green monkey Vero76 cells to EC50 for Yellow fever virus; format: toxicity, cell-based, Vero 76; conditions: read-out: Ratio CC50/EC50
[2] = tested on: Vesicular stomatitis virus; test: Antiviral activity against Vesicular stomatitis virus infected african green monkey Vero76 cells assessed as reduction of virus-induced plaque reduction after 3 days by MTT assay; format: functional, organism-based; conditions: Vero 76, 72 h
Human alphaherpesvirus 1 = test: Antiviral activity against Human herpesvirus 1 infected African green monkey Vero76 cells assessed as reduction of virus-induced plaque reduction after 3 days by MTT assay; format: functional, organism-based; conditions: Human alphaherpesvirus 1, Vero 76, 72 h
[3] = Cytotoxicity against Chlorocebus aethiops (African green monkey) Vero76 cells after 48 to 120 hr by MTT assay; format: cell-based, Vero 76; conditions: chlorocebus sabaeus
Coxsackievirus B2 = test: Antiviral activity against Human coxsackievirus B2 infected African green monkey Vero76 cells assessed as reduction of virus-induced plaque reduction after 3 days by MTT assay; format: functional, organism-based; conditions: Enterovirus B, Vero 76, 72 h
Aspergillus niger = test: Antifungal activity against Aspergillus niger DSM 1988 after 24 to 48 hr by broth microdilution method; format: functional
[4] = tested on: Mammalian orthoreovirus 1; test: Antiviral activity against Mammalian orthoreovirus 1 infected BHK21 cells assessed as inhibition of virus-induced cytopathogenicity after 3 to 4 days by MTT assay; format: functional, organism-based; conditions: Mammalian orthoreovirus 1, BHK-21
Yellow fever virus = test: Antiviral activity against Yellow fever virus infected BHK21 cells assessed as inhibition of virus-induced cytopathogenicity after 3 to 4 days by MTT assay; format: functional, organism-based; conditions: BHK-21
[5] = Cytotoxicity against Cricetinae BHK21 (hamster normal kidney fibroblast) cells after 48 to 120 hr by MTT assay; format: cell-based, Mesocricetus auratus, BHK-21; conditions: BHK21 cells (normal kidney fibroblasts)
[6] = tested on: Bovine viral diarrhea virus 1; test: Antiviral activity against Bovine viral diarrhea virus 1 infected MDBK cells assessed as inhibition of virus-induced cytopathogenicity after 3 to 4 days by MTT assay; format: functional, organism-based; conditions: Bovine viral diarrhea virus isolates and strains
[7] = Cytotoxicity against Bos taurus MDBK cells after 48 to 120 hr by MTT assay; format: cell-based; conditions: cattle
[8] = tested on: Human immunodeficiency virus 1; test: Antiviral activity against Human immunodeficiency virus 1 infected human MT4 cells assessed as inhibition of virus-induced cytopathogenicity after 4 days by MTT assay; format: functional, organism-based; conditions: Human immunodeficiency virus 1, MT4, 96 h
[9] = Cytotoxicity against Homo sapiens (human) MT4 cells containing integrated HTLV-1 genome after 96 hr by MTT assay; format: cell-based
[10] = Selectivity index, ratio of CC50 for green monkey Vero76 cells to EC50 for HSV1; parameters: species or system Vero 76
[11] = Selectivity index, ratio of CC50 for green monkey Vero76 cells to EC50 for Coxsackievirus B2; format: toxicity, cell-based, Vero 76; conditions: read-out: Ratio CC50/EC50

SMILES | MIC (Candida albicans) [µM] | MIC (Pseudomonas aeruginosa) [µM] | MIC (Staphylococcus aureus) [µM] | MIC (Aspergillus niger) [µM] | CC50 at 96 h [9] [µM] | other results
COc1ccccc1N1CCN(CC(O)CN2C(=O)C3=C(SCCS3)C2=O)CC1 (configuration not stated) | > 100 | > 100 | > 100 | > 100 | > 100 | pEC50 (Poliovirus 1): < 4.00; pEC50 (Vaccinia virus): < 4.00; selectivity ratio [1]: > 1.33; pEC50 [2]: < 4.00; pEC50 (Human alphaherpesvirus 1): < 4.00; CC50 [3]: > 100 µM; pEC50 (Coxsackievirus B2): < 4.00; pEC50 [4]: < 4.00; pEC50 (Yellow fever virus): 4.12; CC50 [5]: > 100 µM; pEC50 [6]: < 4.00; CC50 [7]: > 100 µM; pEC50 [8]: < 4.00
C#C[C@@]1(O)[C@H](O)[C@@H](CO)O[C@H]1n1ccc(N)nc1=O [2'-ETHYNYL-D-CYTIDINE] | – | – | – | – | – | pEC50 (Poliovirus 1): 4.74; pEC50 (Coxsackievirus B2): 4.64
Cc1cn([C@H]2C[C@H](N=[N+]=[N-])[C@@H](CO)O2)c(=O)[nH]c1=O [ZIDOVUDINE] | – | – | – | – | 50 | pEC50 [8]: 8.00
O=C1C2=C(SCCS2)C(=O)N1CC(O)CN1CCN(c2ccccn2)CC1 (configuration not stated) | > 100 | > 100 | > 100 | > 100 | > 100 | –
O=C1C2=C(SCCS2)C(=O)N1CCCCN1CCN(Cc2ccccc2)CC1 | > 100 | > 100 | > 100 | > 100 | > 100 | pEC50 (Poliovirus 1): < 4.00; pEC50 (Vaccinia virus): < 4.00; pEC50 [2]: < 4.00; Ratio CC50/EC50 [10]: >3.45; pEC50 (Human alphaherpesvirus 1): 4.54; CC50 [3]: > 100 µM; pEC50 (Coxsackievirus B2): < 4.00; pEC50 [4]: < 4.00; pEC50 (Yellow fever virus): < 4.00; CC50 [5]: > 100 µM; pEC50 [6]: < 4.00; CC50 [7]: > 100 µM; pEC50 [8]: < 4.00
CCN(CC)CC(O)CN1C(=O)C2=C(SCCS2)C1=O (configuration not stated) | > 100 | > 100 | > 100 | > 100 | > 100 | –
O=C1C2=C(SCCS2)C(=O)N1CCCCN1CCN(c2ccccn2)CC1 | > 100 | > 100 | > 100 | > 100 | > 100 | pEC50 (Poliovirus 1): < 4.00; pEC50 (Vaccinia virus): < 4.00; pEC50 [2]: < 4.00; pEC50 (Human alphaherpesvirus 1): < 4.00; selectivity ratio [11]: > 3.12; CC50 [3]: > 100 µM; pEC50 (Coxsackievirus B2): 4.49; pEC50 [4]: < 4.00; pEC50 (Yellow fever virus): < 4.00; CC50 [5]: > 100 µM; pEC50 [6]: < 4.00; CC50 [7]: > 100 µM; pEC50 [8]: < 4.00
O=C1C2=C(SCCS2)C(=O)N1CCCCN1CCN(c2ncccn2)CC1 | – | – | – | – | > 100 | –
O=C1OC(=O)C2=C1SCCS2 | > 100 | > 100 | > 100 | > 100 | – | –
Clc1ccc(COC(Cn2ccnc2)c2ccc(Cl)cc2Cl)c(Cl)c1 (configuration not stated) [MICONAZOLE] | 0.8 (≈ 0.333 µg/mL) | – | – | 20 (≈ 8.32 µg/mL) | – | –
O=C1C2=C(SCCS2)C(=O)N1CCCCN1CCN(c2ccccc2O)CC1 | – | – | – | – | > 100 | –
O=C1C2=C(SCCS2)C(=O)N1CCCN1CCN(c2ccccn2)CC1 | > 100 | > 100 | > 100 | > 100 | > 100 | –
CC1CCN(CC(O)CN2C(=O)C3=C(SCCS3)C2=O)CC1 (configuration not stated) | > 100 | > 100 | > 100 | > 100 | > 100 | –
COc1c(C)c2c(c(O)c1C/C=C(\C)CCC(=O)O)C(=O)OC2 [MYCOPHENOLIC ACID] | – | – | – | – | – | pEC50 (Vaccinia virus): 5.74
